Data as given in EP0363856A1, “Derivative of coumarin, process for its preparation and its use” (HOECHST AKTIENGESELLSCHAFT, priority 1988, dated 1990).

Molecular target: T1, Angereicherte γ-Glutamyl-Transpeptidasen (Bacillus subtilis subsp. natto, UniProt P63186)
T1 construct: Angereicherte γ-Glutamyl-Transpeptidasen der in Beispiel 3 genannten Mikroorganismen; endogenous in cells; host or cells: Bacillus subtilis "natto" IFO 3025, enzyme enriched from the culture
Assay: Incubation of enriched enzyme with cephalosporin substrates (hydrolysis to D-α-Aminoadipinsäure and nucleus)
Format: biochemical
Conditions: enriched enzyme from Bacillus subtilis; hydrolysis to D-α-Aminoadipinsäure and Desacetyl-7ACA or 7ACA
From the text: Angereicherte γ-Glutamyl-Transpeptidasen der in Beispiel 3 genannten Mikroorganismen wurden mit Desacetyl-Cephalosporin C inkubiert. Nur das Enzym aus Bacillus subtilis, welches auch AAA-AMC spaltet, kann Desacetyl-Cephalosporin C und Cephalosporin C zu D-α-Aminoadipinsäure und Desacetyl-7ACA (18 % Umsetzung) bzw. 7ACA (3 % Umsetzung) hydrolysieren.

T1 sequence (P63186 36-587): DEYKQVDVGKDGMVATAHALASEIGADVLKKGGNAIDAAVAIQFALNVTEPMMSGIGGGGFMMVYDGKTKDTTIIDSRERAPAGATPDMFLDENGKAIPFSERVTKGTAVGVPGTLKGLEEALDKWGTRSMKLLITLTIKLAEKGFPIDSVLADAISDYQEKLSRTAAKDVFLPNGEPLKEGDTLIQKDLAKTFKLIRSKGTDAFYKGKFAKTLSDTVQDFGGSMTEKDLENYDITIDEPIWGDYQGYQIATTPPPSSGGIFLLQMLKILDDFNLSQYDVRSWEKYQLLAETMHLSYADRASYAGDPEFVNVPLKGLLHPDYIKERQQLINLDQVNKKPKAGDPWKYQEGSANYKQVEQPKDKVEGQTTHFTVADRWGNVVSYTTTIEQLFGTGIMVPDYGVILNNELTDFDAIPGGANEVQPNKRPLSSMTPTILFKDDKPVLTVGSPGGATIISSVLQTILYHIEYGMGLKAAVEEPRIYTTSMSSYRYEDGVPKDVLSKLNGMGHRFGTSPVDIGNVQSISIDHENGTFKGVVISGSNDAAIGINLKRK

SMILES	Umsetzung
CC(=O)OCC1=C(C(=O)O)N2C(=O)[C@@H](NC(=O)CCC[C@@H](N)C(=O)O)[C@H]2SC1 [Cephalosporin C]	3%
N[C@H](CCCC(=O)N[C@@H]1C(=O)N2C(C(=O)O)=C(CO)CS[C@H]12)C(=O)O [Desacetyl-Cephalosporin C]	18%
